Patent US20090196942A1, “TOPICAL COMPOSITIONS CONTAINING CITRUS JABARA EXTRACT” (priority 2008, published 2009)

Tested on: rat basophil leukemia cells (line RBL-2H3)
Assay: Histamine release from calcium ionophore A23187-stimulated RBL-2H3 cells (Histamine ELISA)
Format: cell-based
Settings: Calcium Ionophore 2 μM, supernatant histamine by ELISA
Method: Citrus Jabara extract was tested to determine its effectiveness in blocking histamine release. Histamine is released by skin and tissues in response to immune challenge. Ingredients that will block the release of histamine improve the soothing properties of skin care products into which they are incorporated. To perform the test, rat basophil leukemia cells (line RBL-2H3) were grown in Dulbecco's Modified Eagle Medium (DMEM) with 10% heat inactivated fetal calf serum, and seeded in 24 well plates at 2.5×10^5 cells/well. The cells were grown overnight and the culture media was removed from the wells and replaced with 1 ml of PIPES buffer (100 mM NaCl, 5 mM KCl, 0.4 mM MgCl2, 1 mM CaCl2, and 5.6 mM D-glucose), pH 7.2. This buffer is known to reduce the spontaneous release of histamine. Stock solutions were prepared: (1) Positive Control: A 10 mM stock solution of diosmetin in DMSO; (2) Active: Citrus Jabara powder—100 mg/ml in DMSO; (3) Calcium Ionophore: 2 mM in DMSO (Sigma Calcium Ionophore A23187). The Control was added to four separate wells varying the final concentration of the Control in each well to 1, 3, 10, and 30 μM. The Active was added to four other wells in varying percentage concentrations ranging from 0.01%, .05%, 0.1%, and 0.5% w/v in each plate. One well was left untreated with cells only. Another single well contained DMSO at a final concentration of less than 1% v/v. […]

COc1ccc(-c2cc(=O)c3c(O)cc(O)cc3o2)cc1O [diosmetin]
inhibition at 30 µM: 85%
